Assay results reported in the supplement of paper PMC10307832.

What was measured:
Assay in all cases: relative viability (nuclei count vs DMSO), 5 days (fraction); higher = more cells survive
[1] = compound: CN[C@@H]1C[C@H]2O[C@@](C)([C@@H]1OC)n1c3ccccc3c3c4c(c5c6ccccc6n2c5c31)C(=O)NC4 [Staurosporine] + CC(C)C[C@H](NC(=O)[C@H](Cc1ccccc1)NC(=O)c1cnccn1)B(O)O [Bortezomib] (partner 0.002 µM)
Method in brief: (§1)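 A single step with final 0.05% Triton X-100, 1% formaldehyde and 1 ug/ml Hoechst fixed the cells and stained nuclei 5 days after treatment. Lung cancer cell lines in 1536-well plates had been treated by pin tool the day after seeding with one drug alone or a fixed anchor-drug dose plus five library-drug doses (not always all listed) in √10 steps, and nuclei were counted on 4× images. Relative viability is the ratio of nuclei in treated wells to nuclei in vehicle wells, taken as the median of duplicate plates.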

[2] = compound: CN[C@@H]1C[C@H]2O[C@@](C)([C@@H]1OC)n1c3ccccc3c3c4c(c5c6ccccc6n2c5c31)C(=O)NC4 [Staurosporine] + Cc1cc(Nc2cc(N3CCN(C)CC3)nc(Sc3ccc(NC(=O)C4CC4)cc3)n2)n[nH]1 [Tozasertib] (partner 0.1 µM)
Method in brief: as §1

[3] = compound: O=c1[nH]cc(F)c(=O)[nH]1 [5-Fluorouracil] + CC1(C)CCC(c2ccc(Cl)cc2)=C(CN2CCN(c3ccc(C(=O)NS(=O)(=O)c4ccc(N[C@H](CCN5CCOCC5)CSc5ccccc5)c(S(=O)(=O)C(F)(F)F)c4)cc3)CC2)C1 [Navitoclax] (partner 0.5 µM)
Method in brief: as §1

[4] = compound: O=c1[nH]cc(F)c(=O)[nH]1 [5-Fluorouracil] + Nc1nc2[nH]cc(CCc3ccc(C(=O)N[C@@H](CCC(=O)O)C(=O)O)cc3)c2c(=O)[nH]1 [Pemetrexed] (partner 0.2 µM)
Method in brief: as §1

Row | Cell Line | relative viability ([1]; first compound 0.005 µM) | relative viability ([1]; first compound 0.01581 µM) | relative viability ([1]; first compound 0.05 µM) | relative viability ([1]; first compound 0.1581 µM) | relative viability ([1]; first compound 0.5 µM) | relative viability ([2]; first compound 0.005 µM) | relative viability ([2]; first compound 0.01581 µM) | relative viability ([2]; first compound 0.05 µM) | relative viability ([2]; first compound 0.1581 µM) | relative viability ([2]; first compound 0.5 µM) | relative viability ([3]; first compound 0.02 µM) | relative viability ([3]; first compound 0.2 µM) | relative viability ([3]; first compound 0.6325 µM) | relative viability ([3]; first compound 2 µM) | relative viability ([4]; first compound 0.02 µM) | relative viability ([4]; first compound 0.2 µM) | relative viability ([4]; first compound 0.6325 µM) | relative viability ([4]; first compound 2 µM)
1 | NCI-H2347 | 1.21 | 0.443 | 0.359 | 0.413 | 0.402 | 0.514 | 0.357 | 0.196 | 0.268 | 0.219 | 0.638 | 0.65 | 0.369 | 0.354 | 0.365 | 0.414 | 0.424 | 0.426
2 | NCI-H1437 | 0.356 | 0.167 | 0.294 | 0.0975 | 0.0786 | 0.402 |  | 0.381 | 0.325 | 0.199 |  | 0.243 | 0.203 | 0.139 | 0.269 | 0.271 | 0.208 | 0.262
3 | NCI-H3122 | 1.04 | 0.355 | 0.947 | 0.821 | 0.362 | 0.441 |  | 0.246 | 0.134 | 0.0837 | 1.04 | 0.743 | 0.443 | 0.259 | 0.197 | 0.181 | 0.167 | 0.164
4 | NCI-H2085 | 0.856 | 0.565 | 0.604 | 0.499 | 0.402 | 0.721 | 0.32 | 0.355 | 0.24 |  | 0.972 | 1.14 | 1.08 | 0.875 | 0.886 | 0.893 | 0.857 | 0.599
5 | PC-3 [JPC-3] | 0.866 |  | 0.511 | 0.275 | 0.316 | 0.919 | 0.598 | 0.512 | 0.321 | 0.344 | 0.793 | 0.759 | 0.767 | 0.63 | 0.987 | 1.02 | 1.02 | 0.751
6 | NCI-H838 | 0.289 | 0.0982 | 0.133 | 0.15 | 0.0919 | 0.218 | 0.156 | 0.179 | 0.164 | 0.143 | 1.14 | 1.06 | 0.572 | 0.28 | 0.261 | 0.253 | 0.257 | 0.249
7 | NCI-H1755 | 0.788 | 0.364 | 0.251 | 0.171 | 0.157 | 0.474 | 0.311 | 0.207 | 0.184 | 0.219 | 0.982 | 0.757 | 0.291 | 0.198 | 0.509 | 0.367 | 0.32 | 0.295
8 | NCI-H1650 | 0.205 | 0.179 | 0.197 | 0.179 | 0.194 | 0.332 | 0.302 | 0.17 | 0.203 | 0.123 | 1.29 | 0.82 | 0.63 | 0.294 | 0.362 | 0.335 | 0.353 | 0.286
9 | HCC-15 | 1.05 |  | 0.842 | 0.376 | 0.251 | 0.379 |  | 0.166 | 0.0982 | 0.0697 | 0.761 | 0.77 | 0.469 | 0.298 | 0.219 | 0.217 | 0.21 | 0.218
10 | PC-14 | 0.838 | 0.428 | 0.293 | 0.0723 | 0.065 | 0.514 | 0.218 | 0.0637 | 0.0512 | 0.0343 | 1.13 | 1.05 | 0.791 | 0.499 | 0.128 | 0.14 | 0.147 | 0.18
11 | HOP-62 | 0.976 | 0.495 | 0.186 | 0.0948 | 0.0922 | 0.349 | 0.237 | 0.114 | 0.128 | 0.103 | 1.09 | 1.13 | 1.01 | 0.805 | 0.323 | 0.361 | 0.287 | 0.342
12 | NCI-H322M | 1.3 | 1.14 | 0.993 | 0.78 | 0.742 | 0.318 | 0.318 | 0.287 | 0.334 | 0.288 | 1.29 | 1.07 | 0.853 | 0.693 | 0.602 | 0.598 | 0.549 | 0.512
13 | NCI-H1734 | 0.741 | 0.316 | 0.251 | 0.127 |  | 0.314 | 0.206 | 0.191 | 0.132 | 0.0956 | 0.795 | 0.932 | 0.765 | 0.428 | 0.419 | 0.412 | 0.401 | 0.45
14 | EKVX | 0.351 | 0.234 | 0.262 |  | 0.125 | 0.346 | 0.213 | 0.17 | 0.165 | 0.134 | 0.847 | 0.283 | 0.142 | 0.124 | 0.305 | 0.283 |  | 
15 | NCI-H596 | 1.38 | 0.549 | 1 | 0.282 | 0.393 | 1.02 | 0.735 | 0.572 | 0.36 | 0.288 | 0.804 | 0.753 | 0.566 | 0.347 | 0.547 | 0.524 | 0.486 | 0.435
16 | LCLC-97TM1 | 0.164 | 0.158 | 0.219 | 0.151 | 0.0852 | 0.277 | 0.139 | 0.181 | 0.199 | 0.221 | 0.463 | 0.525 | 0.222 | 0.212 | 0.146 | 0.218 | 0.165 | 0.176
17 | COR-L23 | 0.69 | 0.282 | 0.272 | 0.104 | 0.0851 | 0.102 | 0.112 | 0.0926 | 0.0869 | 0.0647 | 1.05 | 0.949 | 0.533 | 0.239 | 0.194 | 0.195 | 0.194 | 0.185
18 | NCI-H1355 | 1.09 | 0.693 | 0.259 | 0.202 | 0.209 | 0.577 | 0.286 | 0.252 | 0.188 | 0.151 | 0.699 | 0.651 | 0.353 | 0.241 | 0.928 | 0.762 | 0.311 | 0.257
19 | EPLC-272H | 1.01 | 0.195 | 0.447 | 0.181 | 0.126 | 0.381 | 0.17 | 0.147 | 0.104 | 0.108 | 1.18 | 0.79 | 0.372 | 0.259 | 0.242 | 0.23 | 0.269 | 0.274
20 | ChaGo-K-1 | 0.992 |  | 0.86 | 0.243 | 0.222 | 0.202 | 0.181 | 0.162 | 0.145 | 0.157 | 0.956 | 1.07 | 0.672 | 0.685 | 0.252 | 0.262 | 0.26 | 0.261
21 | NCI-H1651 | 0.997 | 0.772 | 0.661 | 0.368 | 0.349 | 0.66 | 0.675 | 0.371 | 0.237 | 0.185 | 1.09 | 0.9 | 0.574 | 0.42 | 0.502 | 0.457 | 0.3 | 0.305
22 | SW 1573 | 0.712 | 0.444 | 0.192 | 0.101 | 0.0911 | 0.153 | 0.186 | 0.119 | 0.0873 | 0.069 | 1.02 | 1.13 | 0.782 | 0.501 | 0.853 | 0.815 | 0.704 | 0.408
23 | HCC-44 | 0.708 | 0.367 | 0.169 | 0.142 | 0.0976 | 0.426 | 0.136 | 0.168 | 0.135 | 0.112 | 0.916 | 0.984 | 0.744 | 0.341 | 0.641 | 0.625 | 0.569 | 0.471
24 | NCI-H460 | 1.08 | 0.733 | 0.463 | 0.0074 | 0.0085 | 0.698 | 0.113 | 0.304 | 0.0517 | 0.0214 | 1.5 | 0.461 | 0.165 | 0.0655 | 0.0627 | 0.0623 | 0.0575 | 0.0952
25 | SK-LU-1 | 0.906 |  | 0.255 | 0.2 | 0.179 | 0.168 | 0.115 |  | 0.133 | 0.0818 | 1.1 | 1.2 | 0.796 | 0.753 | 0.959 | 1.01 | 0.916 | 0.763
26 | LOU-NH91 | 0.519 | 0.461 | 0.54 | 0.369 | 0.374 | 0.727 | 0.483 | 0.375 | 0.302 | 0.191 | 0.732 | 0.637 | 0.455 | 0.283 | 0.359 | 0.342 | 0.317 | 0.309
27 | RERF-LC-KJ | 1.15 | 0.926 | 0.674 | 0.322 | 0.242 | 0.414 | 0.433 | 0.219 | 0.178 | 0.176 | 0.834 | 0.971 | 1.01 | 0.554 | 0.483 | 0.507 | 0.531 | 0.495
28 | NCI-H2126 | 1.1 | 0.817 | 0.777 | 0.371 | 0.387 | 0.658 | 0.494 | 0.348 | 0.247 | 0.226 | 0.827 | 0.367 | 0.303 | 0.298 | 0.647 | 0.435 | 0.38 | 0.304
29 | LU99A | 0.985 | 0.389 | 0.318 | 0.271 | 0.172 | 0.266 | 0.178 | 0.185 | 0.225 | 0.138 | 0.755 | 0.795 | 0.686 | 0.563 | 0.185 | 0.177 | 0.154 | 0.171
30 | BEN | 0.698 | 0.528 |  | 0.253 | 0.163 | 0.587 | 0.743 | 0.484 | 0.434 | 0.325 | 0.0616 | 0.276 | 0.0857 | 0.0672 | 0.817 | 0.837 | 0.758 | 0.903
